These results are taken from article PMC9508196 (Scientific Reports, 2022).

In brackets after ≈: the same amount, converted by molar mass. No end group written: not given here. Bounds are passed on as bounds.

Test [1] relates to A. baumannii isolate A-8.2-1. Nature of the test: Disk diffusion test (CLSI), antibiotic susceptibility profile. In kind it is cell-based, Acinetobacter baumannii. As to conditions: CLSI breakpoints. Here is the method:
(§1) ^aAntibiotic susceptibility profile of all isolated strains was evaluated by disk diffusion test, using the standard protocol guide of the Clinical and Laboratory Standards Institute (CLSI), and interpreted as S: Susceptible to standard dosing regimen; I: Intermediate; R: Resistant (in accordance with the criteria of CLST breakpoints).
A general note: Agar diffusion results depend on both activity and mobility in agar.

The subject of test [2] is A. baumannii isolate B-8.1-1. The test is described as above. Format: cell-based, Acinetobacter baumannii. As to conditions: CLSI breakpoints. Here is the method:
as §1

In test [3] the test system is A. baumannii isolate B-8.1-2. The description is as above. Format: cell-based, Acinetobacter baumannii. The following applies: CLSI breakpoints. Here is the method:
as §1

Test [4] deals with A. baumannii isolate B-8.2-2. The description is as above. Format: cell-based, Acinetobacter baumannii. The following applies: CLSI breakpoints. Here is the method:
as §1

Test [5] relates to A. baumannii isolate C-8.1-2. Described as above. In kind it is cell-based, Acinetobacter baumannii. As to conditions: CLSI breakpoints. Here is the method: as §1
In test [6] the test system is A. baumannii isolate C-8.2-1. Described as above. In kind it is cell-based, Acinetobacter baumannii. The following applies: CLSI breakpoints. Here is the method: as §1
Test [7] concerns A. baumannii isolate D-10.1-1. The test is described as above. In kind it is cell-based, Acinetobacter baumannii. As to conditions: CLSI breakpoints. Here is the method:
as §1

The subject of test [8] is A. baumannii isolate D-10.1-2. The test is described as above. In kind it is cell-based, Acinetobacter baumannii. The following applies: CLSI breakpoints. Here is the method: as §1
Test [9] relates to A. baumannii A-8.2–1 (XDR). Kind of test: microbe, parasite or virus in culture. Format: cell-based, Acinetobacter baumannii. As to conditions: Acinetobacter baumannii. The source says: (§2) Ten strains of both Gram-positive and -negative bacteria, including Staphylococcus aureus ATCC 25,923, S. epidermidis ATCC 12,228, Bacillus cereus ATCC 11,778, Listeria monocytogenes 10403S, Salmonella typhimurium ATCC 13,311, Pseudomonas aeruginosa ATCC 27,853, Shigella sonnei ATCC 11,060, A. baumannii ATCC 19,606, Escherichia coli ATCC 25,922 and E. coli O157:H7, were used in this study. Eight clinical isolates of multidrug-resistant (MDR) and extensively drug-resistant (XDR) A. baumannii, isolated from human (blood, sputum, respiratory sample, sterile site sample and urine), were kindly provided by Asst. Prof. Dr. Sakawrat Kanthawong (Faculty of Medicine, Khon Kaen University, Thailand) (Table S1). All bacterial strains, excluding L. monocytogenes 10403S and E. coli, were cultured in tryptic soy broth (TSB). L. monocytogenes was grown in TSB supplemented with 0.6% yeast extract (TSB-YE), and E. coli was cultured in Luria broth (LB). All of bacteria were cultured at 37 °C with continuous shaking at 220 rpm.
(§3) Minimum inhibitory concentration (MIC) of peptides and antibiotics was assessed by a modified version of the broth microdilution method from the Clinical and Laboratory Standards Institute (CLSI) as previously described. In brief, mid-log phase growths of microbial strains were cultured in Müeller-Hinton broth (MHB) with an initial inoculum of 2–8 × 10^5 CFU/mL. Bacteria suspensions were incubated in sterile 96-well plates with test agents at desired concentrations. […] Minimum bactericidal concentration (MBC) determination was performed using a modified version of the colony count assay. In brief, fifty µl of all non-turbid wells from MIC experiments were spread on agar plates. The MBC value was defined as the lowest concentration of peptides with no colony growth on the plate. All assays were performed in triplicate.

Test [10] deals with A. baumannii ATCC 19,606. Nature of the test: microbe, parasite or virus in culture. Format: cell-based, Acinetobacter baumannii.
From the text: as §2, §3

Test [11] has as its system A. baumannii B-8.1–1 (MDR). Nature of the test: microbe, parasite or virus in culture. Format: cell-based, Acinetobacter baumannii. As to conditions: Acinetobacter baumannii.
From the text: as §2, §3

The test system of test [12] is A. baumannii B-8.1–2 (MDR). Nature of the test: microbe, parasite or virus in culture. In kind it is cell-based, Acinetobacter baumannii. As to conditions: Acinetobacter baumannii.
From the text: as §2, §3

Test [13] has as its system A. baumannii B-8.2–2 (XDR). Kind of test: microbe, parasite or virus in culture. Format: cell-based, Acinetobacter baumannii. The following applies: Acinetobacter baumannii.
From the text: as §2, §3

Test [14] relates to A. baumannii C-8.1–2 (MDR). Nature of the test: microbe, parasite or virus in culture. In kind it is cell-based, Acinetobacter baumannii. As to conditions: Acinetobacter baumannii.
From the text: as §2, §3

Test [15] relates to A. baumannii C-8.2–1 (XDR). Nature of the test: microbe, parasite or virus in culture. As to conditions: Acinetobacter baumannii. In kind it is cell-based, Acinetobacter baumannii.
From the text: as §2, §3

Test [16] has as its system Bacillus cereus ATCC 11,778. Format: cell-based. As to conditions: B. cereus ATCC 11,778; broth microdilution, MHB, 24 h, 37 °C, triplicate.
From the text: as §2, §3

Test [17] deals with Escherichia coli ATCC 25,922. Format: cell-based. The following applies: E. coli ATCC 25,922; broth microdilution, MHB, 24 h, 37 °C, triplicate.
From the text: as §2, §3

The test system of test [18] is Escherichia coli O157:H7 MT strain. Format: cell-based. The following applies: E. coli O157:H7 MT strain; broth microdilution, MHB, 24 h, 37 °C, triplicate.
From the text: as §2, §3

In test [19] the test system is Listeria monocytogenes 10403S. Format: cell-based. The following applies: L. monocytogenes 10403S; broth microdilution, MHB, 24 h, 37 °C, triplicate.
From the text: as §2, §3
For orientation: In broth dilution the organism is exposed to a series of concentrations in liquid medium.

Test [20] relates to Pseudomonas aeruginosa ATCC 27,853. In kind it is cell-based. As to conditions: P. aeruginosa ATCC 27,853; broth microdilution, MHB, 24 h, 37 °C, triplicate.
From the text: as §2, §3

Test [21] has as its system Salmonella Typhimurium ATCC 13,311. Format: cell-based. The following applies: S. Typhimurium ATCC 13,311; broth microdilution, MHB, 24 h, 37 °C, triplicate.
From the text: as §2, §3

The test system of test [22] is Shigella sonnei ATCC 11,060. In kind it is cell-based. The following applies: S. sonnei ATCC 11,060; broth microdilution, MHB, 24 h, 37 °C, triplicate.
From the text: as §2, §3

The subject of test [23] is Staphylococcus aureus ATCC 25,923. Format: cell-based. The following applies: S. aureus ATCC 25,923; broth microdilution, MHB, 24 h, 37 °C, triplicate.
From the text: as §2, §3

Test [24] has as its system Staphylococcus epidermidis ATCC 12,228. In kind it is cell-based. As to conditions: S. epidermidis ATCC 12,228; broth microdilution, MHB, 24 h, 37 °C, triplicate.
From the text: as §2, §3

Setting [25] is: A. baumannii ATCC 19,606, broth microdilution (modified CLSI), MHB, 2–8 × 10^5 CFU/mL, 24 h, 37 °C, triplicate.

In the case of `CC1(C)S[C@@H]2[C@H](NC(=O)[C@H](N)c3ccccc3)C(=O)N2[C@H]1C(=O)O` [Amp, Ampicillin], the Antibiotic susceptibility profile entry in test [1], in test [2], in test [3], in [4], in test [5] and in test [6] was “R” throughout. Moreover, the Antibiotic susceptibility profile result in test [7] and in test [8] was “R” in each case.
`CC(C)(O/N=C(\C(=O)N[C@@H]1C(=O)N2C(C(=O)[O-])=C(C[n+]3ccccc3)CS[C@H]12)c1csc(N)n1)C(=O)O` [Caz, Ceftazidime]: the Antibiotic susceptibility profile result in test [1] was “R”; in test [2], “S”; in test [3], “R”; in test [4], “R”; in test [5], “I”; in test [6] it was “R”. Moreover, the Antibiotic susceptibility profile entry in [7] was “R”; in [8], “I”.
As for `CNC(C)C1CCC(N)C(OC2C(N)CC(N)C(OC3OCC(C)(O)C(NC)C3O)C2O)O1` (stereo not drawn) [Gen, Gentamicin], the Antibiotic susceptibility profile entry in [1] was “R”; in test [2] it was “I”; in test [3], “R”; in test [4], “R”; in test [5], “R”; in test [6], “R”. In addition, the Antibiotic susceptibility profile entry in test [7] is on record as “R”; in test [8], “I”.
Take `CN(C)c1ccc(O)c2c1C[C@H]1C[C@H]3[C@H](N(C)C)C(O)=C(C(N)=O)C(=O)[C@@]3(O)C(O)=C1C2=O` [Minocycline]: the MBC in test [9] worked out at 31.2 µg/mL (≈ 68.3 µM); in test [10] (Acinetobacter baumannii, ATCC19) it was 1.95 µg/mL (≈ 4.26 µM); in [11], 7.81 µg/mL (≈ 17.1 µM); in test [12] it was 15.6 µg/mL (≈ 34.2 µM); in test [13], 31.2 µg/mL (≈ 68.3 µM); in test [14], 31.2 µg/mL (≈ 68.3 µM). Further, the MBC in test [15] was found to be 31.2 µg/mL (≈ 68.3 µM). The MIC in test [9] was 0.98 µg/mL (≈ 2.14 µM); in [10] (Acinetobacter baumannii, ATCC19, 24 h) it was at most 0.49 µg/mL; in test [11], at most 0.49 µg/mL; in [12], 0.98 µg/mL (≈ 2.14 µM); in [13], 3.91 µg/mL (≈ 8.55 µM); in test [14] it was 3.91 µg/mL (≈ 8.55 µM). The MIC in test [15] stood at 1.95 µg/mL (≈ 4.26 µM).
Regarding RLFRRVKKVAGK-NH2 [AP12], the MIC in test [10] (setting [25]) was above 250 µg/mL; in [16] it was above 250 µg/mL; in test [17], 125 µg/mL; in [18] it was 250 µg/mL; in test [19], 125 µg/mL; in test [20] it was above 250 µg/mL. Further, the MIC is 125 µg/mL in test [21], 250 µg/mL in [22], above 250 µg/mL in test [23] and 250 µg/mL in test [24].
Turning to RLFRRVKKVAGKI-NH2 [AP13], the MIC was above 250 µg/mL in [10] (setting [25]); above 250 µg/mL in [16]; 125 µg/mL in test [17]; 250 µg/mL in [18]; 62.5 µg/mL in test [19]; above 250 µg/mL in [20]. In addition, the MIC is 62.5 µg/mL in test [21], 125 µg/mL in test [22], above 250 µg/mL in test [23] and 62.5 µg/mL in test [24].
On to RLFRRVKKVAGKIA-NH2 [AP14], for which the MIC was above 250 µg/mL in [10] (setting [25]); above 250 µg/mL in [16]; 125 µg/mL in test [17]; 250 µg/mL in [18]; 62.5 µg/mL in test [19]; 250 µg/mL in test [20]. The MIC is 62.5 µg/mL in test [21], 125 µg/mL in test [22], above 250 µg/mL in test [23] and 31.25 µg/mL in [24].
Take RLFRRVKKVAGKIAK-NH2 [AP15]: the MIC in [10] (setting [25]) is 62.5 µg/mL; in test [16], above 250 µg/mL; in [17] it was 31.25 µg/mL; in [18], 62.5 µg/mL; in test [19] it was 31.25 µg/mL; in [20], 125 µg/mL. Further, the MIC was 31.25 µg/mL in [21], 62.5 µg/mL in test [22], 250 µg/mL in [23] and 15.63 µg/mL in test [24].
As to RLFRRVKKVAGKIAKR-NH2 [AP16], the MIC worked out at 62.5 µg/mL in [10] (setting [25]); 250 µg/mL in test [16]; 31.25 µg/mL in [17]; 125 µg/mL in test [18]; 15.63 µg/mL in test [19]; 62.5 µg/mL in test [20]. In addition, the MIC was 15.63 µg/mL in test [21], 15.63 µg/mL in test [22], 125 µg/mL in [23] and 7.81 µg/mL in test [24].
As for RLFRRVKKVAGKIAKRI-NH2 [AP17], the MIC in test [10] (setting [25]) is 31.25 µg/mL; in test [16] it was 62.5 µg/mL; in test [17], 15.63 µg/mL; in [18], 125 µg/mL; in test [19], 7.81 µg/mL; in test [20] it was 15.63 µg/mL. For the same compound, the MIC in [21] amounted to 7.81 µg/mL; in test [22], 7.81 µg/mL; in [23] it was 62.5 µg/mL; in test [24], 7.81 µg/mL.
For the compound RLFRRVKKVAGKIAKRIW-NH2 [AP18], the MIC in test [10] (setting [25]) stood at 7.81 µg/mL; in [16], 7.81 µg/mL; in test [17], 7.81 µg/mL; in test [18] it was 15.63 µg/mL; in test [19] it was 3.91 µg/mL; in test [20], 3.91 µg/mL. Besides, the MIC in [21] came out at 3.91 µg/mL; in test [22] it was 3.91 µg/mL; in test [23], 7.81 µg/mL; in [24] it was 3.91 µg/mL.
